Test results reported in ChEMBL document CHEMBL5096239, “Two Binding Sites of SARS-CoV-2 Macrodomain 3 Probed by Oxaprozin and Meclomen” (J Med Chem, 2022).

Key:
[1] = Binding affinity to 15N-labelled His6-tagged SARS-CoV-2 Mac3 (551 to 675 residues) V635I mutant expressed in Escherichia coli Rosetta by NMR HSQC spectral analysis; design: species or system Severe acute respiratory syndrome coronavirus 2
[2] = Binding affinity to 15N-labelled MTSL-tagged SARS-CoV-2 Mac3 (551 to 675 residues) T583C mutant expressed in Escherichia coli Rosetta by transferred PRE analysis; design: species or system Severe acute respiratory syndrome coronavirus 2

`Cc1ccc(Cl)c(Nc2ccccc2C(=O)O)c1Cl` [MECLOFENAMIC ACID] gave a Kd [1] of 300 µM and a Kd [2] of 700 µM.
